Results reported in patent US20140080795A1, “NRF2 Deficiency Influences Susceptibility to Steroid Resistance via HDAC2 Reduction” (University of Rochester, priority 2010, published 2014).

Experiments:
MCP-1 = assay: LPS-induced lung inflammation in mice: MCP-1 levels in lung tissue by ELISA; assay type: in vivo, mouse; conditions: Nrf2-/- mice, budesonide 1 and 3 mg/kg pretreatment
Protocol: Briefly, age-matched WT, Nrf2−/− and HDAC2−/− were exposed to aerosolized Escherichia coli LPS (1 mg/ml) for 8 minutes. Aerosolized saline-exposed mice were used as controls, and animals were sacrificed at 24 h post last exposure. […] Monocyte chemotactic protein 1 (MCP-1) levels were measured from mouse lung soluble protein by enzyme-linked immunosorbent assay (ELISA) with the duo-antibody kit (R & D Systems). Results were normalized to protein concentration per sample. […] Briefly, age-matched wild-type, Nrf2−/− and HDAC2−/− were exposed to aerosolized Escherichia coli LPS diluted to 1 mg/ml for 8 minutes. Aerosolized saline-exposed mice were used as controls and animals were sacrificed at 24 h post last exposure (Yao et al., Am J Respir Cell Mol Biol 39: 7-18 (2008)). […] Monocyte chemotactic protein 1 (MCP-1) levels were measured from mouse lung soluble protein by enzyme-linked immunosorbent assay (ELISA) with the MCP-1 duo-antibody kit (R & D Systems). Results were normalized to protein concentration per sample.

KC = assay: LPS-induced lung inflammation in mice: KC levels in lung homogenates by ELISA; assay type: in vivo, mouse

## CCCC1O[C@@H]2C[C@H]3[C@@H]4CCC5=CC(=O)C=C[C@]5(C)[C@H]4[C@@H](O)C[C@]3(C)[C@]2(C(=O)CO)O1 (stereo partly drawn) [budesonide]
MCP-1
  LPS-induced release of MCP-1 in lung: no inhibitory effect
KC; HDAC2-/- mice, budesonide 3 mg/kg pretreatment
  KC release in lung: no significant effect
KC; Nrf2-/- mice, budesonide 1 and 3 mg/kg pretreatment
  LPS-induced release of KC in lung: no inhibitory effect
